From US20240287154A1, “MC3R AGONIST PEPTIDES” (The Regents of the University of Michigan, priority 2021, published 2024)
Non-standard residues stand in square brackets, D forms with d. Residues, ends and D or L forms follow the SMILES beside them. Phe(4-Br) = N[C@@H](Cc1ccc(Br)cc1)C(=O)O; NMeY = CN[C@@H](Cc1ccc(O)cc1)C(=O)O; Nle = CCCC[C@H](N)C(=O)O

How the values were obtained:
[1] = molecular target: human MC4R (Homo sapiens, UniProt P32245); test: Intracellular cAMP levels in live cells, MC3R selectivity relative to MC4R; format: cell-based; settings: cAMP assays in human MC3R and human MC4R stable cell lines
[2] = in vitro; settings: for Mouse Plasma Stability, time point 0 min: pooled mouse plasma, 37° C.
Description: Pooled mouse plasma was prepared and stored at −80° C. prior to use. 396 μL mouse plasma was incubated at 37° C. for 5 minutes in 1.5 mL microcentrifuge tubes. 4 μL of 100 μM test or control compound/peptide was added to each tube and incubated for 0.5, 15, 30, 60, 120, or 240 minutes. An aliquot of 40 μL of each reaction was stopped by the addition of 4 volume of cold acetonitrile containing 200 ng/mL of Setmelanotide as an internal standard (IS). The incubation solution was centrifuged at 3500 rpm for 10 minutes to precipitate protein. The supernatant was used for LC/MS/MS analysis. The natural log peak area ratio (compound peak […] area/internal standard peak area) was plotted against time and the gradient of the line determined.

Chain of human MC4R (P32245 whole entry): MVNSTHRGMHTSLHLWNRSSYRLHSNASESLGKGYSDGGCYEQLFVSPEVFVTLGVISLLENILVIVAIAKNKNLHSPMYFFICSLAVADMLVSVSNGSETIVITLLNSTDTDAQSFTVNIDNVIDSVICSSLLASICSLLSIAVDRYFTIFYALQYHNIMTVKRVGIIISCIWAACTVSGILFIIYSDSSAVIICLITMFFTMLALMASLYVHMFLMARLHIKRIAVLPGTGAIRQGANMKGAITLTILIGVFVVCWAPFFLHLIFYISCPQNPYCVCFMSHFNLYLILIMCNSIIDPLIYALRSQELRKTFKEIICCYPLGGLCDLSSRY

| SMILES | MC3R selectivity (relative to MC4R) [1] | half-life at 1 µM ([2]; mouse, plasma) | remaining at 5 min, 1 µM ([2]; mouse, plasma) | remaining at 0.25 h, 1 µM ([2]; mouse, plasma) | remaining at 0.5 h, 1 µM ([2]; mouse, plasma) | remaining at 1 h, 1 µM ([2]; mouse, plasma) | Mouse Plasma Stability, time point 0 min [2] | remaining at 2 h, 1 µM ([2]; mouse, plasma) | remaining at 4 h, 1 µM ([2]; mouse, plasma) |
| --- | --- | --- | --- | --- | --- | --- | --- | --- | --- |
| CCCC[C@H](NC(=O)[C@@H](NC(=O)[C@@H](N)Cc1ccc(O)cc1)C(C)C)C(=O)N[C@H](C)C(=O)N[C@@H](Cc1c[nH]cn1)C(=O)N[C@@H](Cc1ccccc1)C(=O)N[C@@H](CCCNC(=N)N)C(=O)N[C@H](Cc1c[nH]c2ccccc12)C(=O)N[C@@H](CC(=O)O)C(=O)N[C@@H](CCCNC(=N)N)C(=O)N[C@@H](Cc1ccccc1)C(=O)NCC(=O)O [CTX-1103, Tyr-Val-Nle-D-Ala-His-Phe-Arg-D-Trp-Asp-Arg-Phe-Gly] (H-YV[Nle][dA]HFR[dW]DRFG-OH) | 229 | 1.46 min | 9.3% | 0.21% | 0.03% | 0.02% | 100% |  |  |
| CC(C)[C@H](NC(=O)[C@@H](N)Cc1ccc(O)cc1)C(=O)N[C@@H](CCC(=O)O)C(=O)NCC(=O)N[C@@H](Cc1c[nH]cn1)C(=O)N[C@@H](Cc1ccccc1)C(=O)N[C@@H](CCCNC(=N)N)C(=O)N[C@H](Cc1c[nH]c2ccccc12)C(=O)N[C@@H](CC(=O)O)C(=O)N[C@@H](CCCNC(=N)N)C(=O)N[C@@H](Cc1ccccc1)C(=O)NCC(N)=O [CTX-1105, Tyr-Val-Glu-Gly-His-Phe-Arg-D-Trp-Asp-Arg-Phe-Gly] (H-YVEGHFR[dW]DRFG-NH2) | 500 | 2.38 min | 23.4% | 1.51% | 0.3% | 0.27% | 100% | 0.12% |  |
| CCCC[C@H](NC(=O)[C@@H](NC(=O)[C@@H](N)Cc1ccc(O)cc1)C(C)C)C(=O)N[C@H](C)C(=O)N[C@@H](Cc1c[nH]cn1)C(=O)N[C@@H](Cc1ccccc1)C(=O)N[C@@H](CCCNC(=N)N)C(=O)N[C@H](Cc1c[nH]c2ccccc12)C(=O)N[C@@H](CC(=O)O)C(N)=O [CTX-1108, Tyr-Val-Nle-D-Ala-His-Phe-Arg-D-Trp-Asp] (H-YV[Nle][dA]HFR[dW]D-NH2) | 79 | 1.32 min | 7.21% | 0.33% | 0.04% | 0.01% | 100% |  |  |
| CCCC[C@H](NC(=O)[C@@H](NC(=O)[C@H](Cc1ccc(O)cc1)NC)C(C)C)C(=O)N[C@H](C)C(=O)N[C@@H](Cc1c[nH]cn1)C(=O)N[C@@H](Cc1ccccc1)C(=O)N[C@@H](CCCNC(=N)N)C(=O)N[C@H](Cc1c[nH]c2ccccc12)C(=O)N[C@@H](CC(=O)O)C(N)=O [CTX-1141, NMe-Tyr-Val-Nle-D-Ala-His-Phe-Arg-D-Trp-Asp] (H-[NMeY]V[Nle][dA]HFR[dW]D-NH2) | 55 | > 240 min | 106% | 118% | 95% | 91.8% | 100% | 108% | 63.9% |
| CCCC[C@H](NC(=O)[C@@H](NC(=O)[C@@H](N)Cc1ccc(O)cc1)C(C)C)C(=O)N[C@H](C)C(=O)N[C@@H](Cc1c[nH]cn1)C(=O)N[C@@H](Cc1ccc(Br)cc1)C(=O)N[C@@H](CCCNC(=N)N)C(=O)N[C@H](Cc1c[nH]c2ccccc12)C(=O)N[C@@H](CC(=O)O)C(=O)N[C@@H](CCCNC(=N)N)C(=O)N[C@@H](Cc1ccccc1)C(=O)NCC(=O)O [CTX-2120, Tyr-Val-Nle-D-Ala-His-Phe(4-Br)-Arg-D-Trp-Asp-Arg-Phe-Gly] (H-YV[Nle][dA]H[Phe(4-Br)]R[dW]DRFG-OH) | 173 | 2.01 min | 17.9% | 0.78% | 0.13% | 0.09% | 100% |  |  |
